Measurements: patent US20230203096A1, “EPHA4 TARGETING COMPOUNDS AND METHODS OF USE THEREOF” (priority 2020, published 2023)
Square brackets hold non-standard residues; d marks the D form. Peptide text beside a SMILES is read from it. * marks the point of attachment. Cyclohexanoyl(1S,3S-3-NH2) = N[C@H]1CCC[C@H](C(=O)*)C1; Trp(5-OH) = N[C@@H](Cc1c[nH]c2ccc(O)cc12)C(=O)O; NH(4-morpholinophenyl) = c1cc(N2CCOCC2)ccc1N*; Bip = N[C@@H](Cc1ccc(-c2ccccc2)cc1)C(=O)O; hArg = N=C(N)NCCCC[C@H](N)C(=O)O

Target: T1, ^13C^ε-Met-labeled EphA4-LBD (Homo sapiens, UniProt P54764, C204A)
T1 construct: His tag (N); made in house; host or cells: E. coli Rosetta-Gami B(DE3), pET15b
Test: 2D [13C,1H] HSQC NMR chemical shift perturbation of Met resonances
Type: binding
Experimental: Peptides were synthesized by using standard solid-phase synthesis protocol, using the BAL resin as anchoring for the C-terminal amines. Isothermal Titration Calorimetry (ITC) measurements were performed in a reverse fashion by titrating the protein into the ligand solution. Solution nuclear magnetic resonance (NMR) experiments were conducted on a 700 MHz Bruker Avance spectrometer equipped with a TCI cryoprobe. […]
2D [^13C,^1H] correlation NMR spectra measured with such protein targets, collected in absence or presence of test ligands can be used to monitor ligand binding and make, albeit qualitative, determinations on possible conformational changes induced by test ligands on the protein target. […] In targeting EphA4, an important aspect regarding the activity of its ligands is whether these agents could be predicted to work as antagonists or agonists.
NMR spectra were acquired on Bruker Avance III 700 MHz spectrometer equipped with a TCI cryoprobe. All NMR data were processed and analyzed using TOPSPIN 3.6.1 (Bruker, Billerica, Mass., USA).
Chemical shift changes (A) in the 2D [^13C, ^1H] spectra were calculated as weight average perturbations observed in the ^1H and ^13C dimensions using the following Equation: […]

[1] = test ligands at 40 μM, EphA4-LDB at 20 μM, Table 8

T1 sequence (P54764 29-209 C204A): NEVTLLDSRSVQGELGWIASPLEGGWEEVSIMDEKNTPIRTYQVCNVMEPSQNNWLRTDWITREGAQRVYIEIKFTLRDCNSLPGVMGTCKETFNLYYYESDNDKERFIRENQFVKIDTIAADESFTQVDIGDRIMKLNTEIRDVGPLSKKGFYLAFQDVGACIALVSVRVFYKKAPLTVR

For `N=C(N)NCCCC[C@H](NC(=O)[C@H](Cc1ccc(-c2ccccc2)cc1)NC(=O)[C@H](Cc1c[nH]c2ccc(O)cc12)NC(=O)[C@H]1CCC[C@H](N)C1)C(=O)NCC(=O)Nc1ccc(N2CCOCC2)cc1` [Compound 8, (1S,3S)—N—((S)-1-(((S)-3-([1,1′-biphenyl]-4-yl)-1-(((S)-6-guanidino-1-((2-((4-morpholinophenyl)amino)-2-oxoethyl)amino)-1-oxohexan-2-yl)amino)-1-oxopropan-2-yl)amino)-3-(5-hydroxy-1H-indol-3-yl)-1-oxopropan-2-yl)-3-aminocyclohexane-1-carboxamide] ({Cyclohexanoyl(1S,3S-3-NH2)}-[Trp(5-OH)][Bip][hArg]G-{NH(4-morpholinophenyl)}), the “chemical shift perturbation of Met 115 (in words)” value was “no significant perturbations”, the “chemical shift changes of Met 60 and Met 164 (in words)” value (FIG. 8B) was “large chemical shift changes” and the “Δδ ^13C^ϵ/^1H^ϵ Met 164” value (protein 20 μM, 20 μM of each compound) was “++++ (++++ >0.25 ppm)”. The koff (read-out: estimated upper limit for the off rate for the complex koff) was less than 60 s⁻¹, the “Δδ Met 60” value [1] was “++ (0.1 ppm < ++ <0.2 ppm)” and the “Δδ Met 115” value [1] was “+ (0< + <0.1 ppm)”. The “Δδ Met 164” value [1] was “++++ (++++ >0.25 ppm)”.
